What was measured:
IRAK4 = IRAK4 (Homo sapiens (Human), UniProt Q9NWZ3); experiment: IRAK4 Biochemical Assay (TR-FRET/HTRF); settings: IRAK4 enzyme 0.75 nM, 500 μM ATP, 2 μM STK1 peptide, 120 min
Method: IRAK4 Biochemical Assay Procedure:
IRAK4 enzyme (Carna Biosciences, Chuo-ku, Kobe, Japan) activity was measured by detecting phosphorylated peptide substrate formation using an antibody against the phosphorylated peptide substrate. This is a time-resolved fluorescence resonance energy transfer (TR-FRET) immunoassay, based on the STK1 KinEASE Assay (Cisbio, Bedford, Mass.). The assay was designed as a simple two-step, endpoint assay (a 5 μl enzyme reaction followed by 5 μl stop and detect Solution) performed in ProxiPlate-384 Plus plates (Perkin Elmer, Waltham, Mass.). Staurosporine, a non-selective kinase inhibitor was used as a positive control. Compounds diluted in DMSO were spotted into 384 well plates using a Labcyte® Echo 550 Liquid Handling System prior to addition of IRAK4 enzyme and peptide substrate. Reaction solutions were delivered using a Multi-Flo (Bio-Tek Instruments). The enzyme and peptide solution was incubated with compound for 15 minutes at room temp before the reaction was initiated by the addition of ATP. The standard 5 μl reaction mixture contained 500 μM ATP, 2 μM peptide (STK1 Peptide), 0.75 nM of IRAK4 in reaction buffer (50 mM HEPES, pH 7.0, 0.02% NaN3, 0.01% BSA, 0.1 mM Orthovanadate, 5 mM MgCl2, 0.025% NP-40, 1 mM DTT). After 120 min of incubation at room temperature, 5 μl of Stop and Detect Solution (1:100 Cryptate labeled anti-phosphorylated peptide antibody solution and 125 nM Tracer in a 50 mM HEPES pH 7.0 detection buffer containing sufficient EDTA) was added. The plate was then further incubated for 60 minutes at room temperature and read on Envision 2103 Multilabeled reader (PerkinElmer) with excitation/emission/FRET emission at 340 nm/615 nm/665 nm, respectively. Fluorescence intensities at 615 nm and 665 nm emission wavelengths were expressed as a ratio (665 nm/615 nm). Percentage of inhibition was calculated as below: % Inhibition=100×(RatioSample−Ratio0% Inhibition)/(Ratio100% Inhibition−Ratio0% Inhibition)
The 0% inhibition value comes from control wells lacking inhibitor. The 100% inhibition value comes from control wells containing a saturating amount of known inhibitor staurosporine.

TNFα = experiment: IRAK4 Monocyte TNFα Cell Based Assay; settings: Monocyte; cryopreserved human monocytes, 50 pg/ml LPS, compound 1 hour pre-treatment, 4 hours stimulation, TNFα by TR-FRET
Method: IRAK4 Monocyte TNFα Cell Based Assay Procedure:
The cell suspension was then plated at a density of 5,000 cells/well onto black 384 well Greiner clear bottom plates. Plates were pre-spotted with test compounds and serially diluted in DMSO where 40 nL/well were delivered using the Echo 550 acoustic liquid dispenser (Labcyte®) for a final DMSO concentration of 0.1%. Plated cells were treated with compound for 1 hour at 37° C. Cells were then stimulated with 50 pg/ml of LPS (Sigma) excluding outside columns of plate used for unstimulated cell control wells. Cells were incubated for an additional 4 hours at 37° C. Cells were then spun out of the media and 5 μl of sample were taken and analyzed for total TNFα content using the TR-FRET Human TNFα detection system (CisBio). This system utilizes two labeled antibodies (cryptate and XL665) that bind to two different epitopes of the TNFα molecule and produce FRET signal proportional to the concentration of TNFα in the sample. Detection antibodies are mixed 50:50 and 5 μL were dispensed into each well. Plates were covered with clear seals and incubated at room temp overnight. The following morning plates were read using an Envision 2103 Multilabeled reader (PerkinElmer) with excitation/emission/FRET emission at 340 nm/615 nm/665 nm, respectively. Fluorescence intensities at 615 nm and 665 nm emission wavelengths were expressed as a ratio (665 nm/615 nm). Percent of control was calculated as follows: % Control=100×(RatioSample−Ratio0% Stimulation)/(Ratio100% Stimulation−Ratio0% Stimulation)
where unstimulated cells (0% stimulation) were the negative control and stimulated cells (100% stimulation) were used as the positive control.

IRAK4, sequence (Q9NWZ3 whole entry): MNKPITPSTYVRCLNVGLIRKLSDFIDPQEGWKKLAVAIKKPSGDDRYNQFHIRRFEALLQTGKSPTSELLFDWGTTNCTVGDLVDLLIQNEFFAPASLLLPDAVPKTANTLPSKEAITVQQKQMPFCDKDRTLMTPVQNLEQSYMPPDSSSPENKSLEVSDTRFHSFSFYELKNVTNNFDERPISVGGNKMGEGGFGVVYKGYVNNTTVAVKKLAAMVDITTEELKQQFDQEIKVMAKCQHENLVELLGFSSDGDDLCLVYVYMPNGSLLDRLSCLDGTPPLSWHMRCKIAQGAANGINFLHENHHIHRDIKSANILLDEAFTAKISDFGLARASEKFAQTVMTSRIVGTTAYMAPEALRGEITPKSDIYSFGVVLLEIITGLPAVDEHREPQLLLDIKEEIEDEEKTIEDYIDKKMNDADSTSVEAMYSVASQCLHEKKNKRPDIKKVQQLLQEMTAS

Row | Compound | IC50 (IRAK4) [µM] | EC50 (TNFα) [µM]
1 | CC(C)(O)[C@H](F)CNC(=O)c1cnc(-c2ccc3cc(C#N)cnn23)cc1N[C@H]1CC[C@H](n2cnnc2C(F)F)CC1 [Compound 37, 6-(3-cyanopyrrolo[1,2-b]pyridazin-7-yl)-4-(((1r,4R)-4-(3-(difluoromethyl)-4H-1,2,4-triazol-4-yl)cyclohexyl)amino)-N-((R)-2-fluoro-3-hydroxy-3-methylbutyl)nicotinamide] | 0.001 | 0.04
2 | CC(C)(O)[C@H](F)CNC(=O)c1cnc(-c2ccc3cc(C#N)cnn23)cc1N[C@H]1CC[C@H](c2cn(C3CC3)nn2)CC1 [Compound 20, 6-(3-cyanopyrrolo[1,2-b]pyridazin-7-yl)-4-(((1r,4R)-4-(1-cyclopropyl-1H-1,2,3-triazol-4-yl)cyclohexyl)amino)-N-((R)-2-fluoro-3-hydroxy-3-methylbutyl)nicotinamide] | 0.001 | 0.049
3 | CCn1cc([C@H]2CC[C@H](Nc3cc(-c4ccc5cc(C#N)cnn45)ncc3C(=O)NC[C@@H](F)C(C)(C)O)CC2)cn1 [Compound 12, 6-(3-cyanopyrrolo[1,2-b]pyridazin-7-yl)-4-(((1r,4R)-4-(1-ethyl-1H-pyrazol-4-yl)cyclohexyl)amino)-N-((R)-2-fluoro-3-hydroxy-3-methylbutyl)nicotinamide] | 0.002 | 0.044
4 | Cc1ncoc1[C@@H]1CCC[C@@H](Nc2cc(-c3ccc4cc(C#N)cnn34)ncc2C(=O)NC[C@@H](F)C(C)(C)O)C1 [Compound 48, 6-(3-cyanopyrrolo[1,2-b]pyridazin-7-yl)-N-((R)-2-fluoro-3-hydroxy-3-methylbutyl)-4-(((1R,3R)-3-(4-methyloxazol-5-yl)cyclohexyl)amino)nicotinamide] | 0.01 | 1.05
5 | Cc1noc([C@H]2CC[C@H](Nc3cc(-c4ccc5cc(C#N)cnn45)ncc3C(=O)NC[C@@H](F)C(C)(C)O)CC2)n1 [Compound 45, 6-(3-cyanopyrrolo[1,2-b]pyridazin-7-yl)-N-((R)-2-fluoro-3-hydroxy-3-methylbutyl)-4-(((1r,4R)-4-(3-methyl-1,2,4-oxadiazol-5-yl)cyclohexyl)amino)nicotinamide] | 0.002 | 0.085
6 | Cc1c([C@H]2CC[C@H](Nc3cc(-c4ccc5cc(C#N)cnn45)ncc3C(=O)NC[C@@H](F)C(C)(C)O)CC2)cnn1C(F)F [Compound 11, 6-(3-cyanopyrrolo[1,2-b]pyridazin-7-yl)-4-(((1r,4R)-4-(1-(difluoromethyl)-5-methyl-1H-pyrazol-4-yl)cyclohexyl)amino)-N-((R)-2-fluoro-3-hydroxy-3-methylbutyl)nicotinamide] | 0.001 | 0.017
7 | CC(C)(O)[C@H](F)CNC(=O)c1cnc(-c2ccc3cc(C#N)cnn23)cc1N[C@H]1CC[C@H](c2nnc(C(F)F)s2)CC1 [Compound 53, 6-(3-cyanopyrrolo[1,2-b]pyridazin-7-yl)-4-(((1r,4R)-4-(5-(difluoromethyl)-1,3,4-thiadiazol-2-yl)cyclohexyl)amino)-N-((R)-2-fluoro-3-hydroxy-3-methylbutyl)nicotinamide] | < 0.001 | 0.027
8 | CC(C)(O)[C@H](F)CNC(=O)c1cnc(-c2ccc3cc(C#N)cnn23)cc1N[C@H]1CC[C@@H](c2cc[nH]n2)CC1 [Compound 71, 4-(((1s,4S)-4-(1H-pyrazol-3-yl)cyclohexyl)amino)-6-(3-cyanopyrrolo[1,2-b]pyridazin-7-yl)-N-((R)-2-fluoro-3-hydroxy-3-methylbutyl)nicotinamide] | 0.00313 | –
9 | CC(C)(O)[C@H](F)CNC(=O)c1cnc(-c2ccc3cc(C#N)cnn23)cc1NC1CCC(c2cnn(CC(F)(F)F)c2)CC1 (stereo partly drawn) [Compound 6, (R)-6-(3-cyanopyrrolo[1,2-b]pyridazin-7-yl)-N-(2-fluoro-3-hydroxy-3-methylbutyl)-4-((4-(1-(2,2,2-trifluoroethyl)-1H-pyrazol-4-yl)cyclohexyl)amino)nicotinamide] | – | 0.07

Next, values leading:

Row | IC50 (IRAK4) [µM] | EC50 (TNFα) [µM] | Compound
10 | < 0.001 | 0.019 | CC(C)(O)[C@H](F)CNC(=O)c1cnc(-c2ccc3cc(C#N)cnn23)cc1N[C@H]1CC[C@H](n2cc(C#N)cn2)CC1 [Compound 24, 4-(((1r,4R)-4-(4-cyano-1H-pyrazol-1-yl)cyclohexyl)amino)-6-(3-cyanopyrrolo[1,2-b]pyridazin-7-yl)-N-((R)-2-fluoro-3-hydroxy-3-methylbutyl)nicotinamide]
11 | < 0.001 | 0.019 | Cc1nnc(C23CCC(Nc4cc(-c5ccc6cc(C#N)cnn56)ncc4C(=O)NC[C@@H](F)C(C)(C)O)(CC2)CO3)o1 [Compound 64, (R)-6-(3-cyanopyrrolo[1,2-b]pyridazin-7-yl)-N-(2-fluoro-3-hydroxy-3-methylbutyl)-4-((1-(5-methyl-1,3,4-oxadiazol-2-yl)-2-oxabicyclo[2.2.2]octan-4-yl)amino)nicotinamide]
12 | < 0.001 | 0.013 | CC(C)(O)[C@H](F)CNC(=O)c1cnc(-c2ccc3cc(C#N)cnn23)cc1N[C@H]1CC[C@H](c2cncs2)CC1 [Compound 49, 6-(3-cyanopyrrolo[1,2-b]pyridazin-7-yl)-N-((R)-2-fluoro-3-hydroxy-3-methylbutyl)-4-(((1r,4R)-4-(thiazol-5-yl)cyclohexyl)amino)nicotinamide]
13 | < 0.001 | 0.022 | CC(C)(O)[C@H](F)CNC(=O)c1cnc(-c2ccc3cc(C#N)cnn23)cc1N[C@H]1CC[C@H](c2cnn(CC(F)F)c2)CC1 [Compound 5, 6-(3-cyanopyrrolo[1,2-b]pyridazin-7-yl)-4-(((1r,4R)-4-(1-(2,2-difluoroethyl)-1H-pyrazol-4-yl)cyclohexyl)amino)-N-((R)-2-fluoro-3-hydroxy-3-methylbutyl)nicotinamide]
14 | < 0.001 | 0.015 | Cc1nnc(C23CCC(Nc4cc(-c5ccc6cc(C#N)cnn56)ncc4C(=O)NC[C@@H](F)C(C)(C)O)(CC2)CC3)o1 [Compound 60, (R)-6-(3-cyanopyrrolo[1,2-b]pyridazin-7-yl)-N-(2-fluoro-3-hydroxy-3-methylbutyl)-4-((4-(5-methyl-1,3,4-oxadiazol-2-yl)bicyclo[2.2.2]octan-1-yl)amino)nicotinamide]
15 | < 0.001 | 0.058 | CC(C)(O)[C@H](F)CNC(=O)c1cnc(-c2ccc3cc(C#N)cnn23)cc1N[C@H]1CC[C@H](n2cc(CC#N)cn2)CC1 [Compound 27, 4-(((1r,4R)-4-(4-(cyanomethyl)-1H-pyrazol-1-yl)cyclohexyl)amino)-6-(3-cyanopyrrolo[1,2-b]pyridazin-7-yl)-N-((R)-2-fluoro-3-hydroxy-3-methylbutyl)nicotinamide]
16 | 0.000875 | – | CC(C)(O)[C@H](F)CNC(=O)c1cnc(-c2ccc3cc(C#N)cnn23)cc1N[C@H]1CC[C@H](c2cnn(C(F)F)n2)CC1 [Compound 75, 6-(3-cyanopyrrolo[1,2-b]pyridazin-7-yl)-4-(((1r,4R)-4-(2-(difluoromethyl)-2H-1,2,3-triazol-4-yl)cyclohexyl)amino)-N-((R)-2-fluoro-3-hydroxy-3-methylbutyl)nicotinamide]
17 | 0.000822 | – | CC(C)(O)[C@H](F)CNC(=O)c1cnc(-c2ccc3cc(C#N)cnn23)cc1N[C@H]1CC[C@H](c2cc[nH]n2)CC1 [Compound 70, 4-(((1r,4R)-4-(1H-pyrazol-3-yl)cyclohexyl)amino)-6-(3-cyanopyrrolo[1,2-b]pyridazin-7-yl)-N-((R)-2-fluoro-3-hydroxy-3-methylbutyl)nicotinamide]
